According to patent US20230167073A1 (Teijin Pharma Limited, priority 2020, published 2023):

target: T1, Human TRPC6 (Homo sapiens, UniProt Q9Y210); experiment: Evaluation of TRPC6 channel inhibitory activity (1), FLIPR Calcium 5 Assay Kit, OAG stimulation (Compound Nos. 1-1293); type: cell-based; conditions: Human TRPC6 stably-expressing cells, OAG 30 μM, FLIPR Calcium 5 Assay Kit; read-out: Inhibitory activity (pIC50 class) (converted)
T1 construct: expressed in transfected cells
T1 sequence (Q9Y210 1-931): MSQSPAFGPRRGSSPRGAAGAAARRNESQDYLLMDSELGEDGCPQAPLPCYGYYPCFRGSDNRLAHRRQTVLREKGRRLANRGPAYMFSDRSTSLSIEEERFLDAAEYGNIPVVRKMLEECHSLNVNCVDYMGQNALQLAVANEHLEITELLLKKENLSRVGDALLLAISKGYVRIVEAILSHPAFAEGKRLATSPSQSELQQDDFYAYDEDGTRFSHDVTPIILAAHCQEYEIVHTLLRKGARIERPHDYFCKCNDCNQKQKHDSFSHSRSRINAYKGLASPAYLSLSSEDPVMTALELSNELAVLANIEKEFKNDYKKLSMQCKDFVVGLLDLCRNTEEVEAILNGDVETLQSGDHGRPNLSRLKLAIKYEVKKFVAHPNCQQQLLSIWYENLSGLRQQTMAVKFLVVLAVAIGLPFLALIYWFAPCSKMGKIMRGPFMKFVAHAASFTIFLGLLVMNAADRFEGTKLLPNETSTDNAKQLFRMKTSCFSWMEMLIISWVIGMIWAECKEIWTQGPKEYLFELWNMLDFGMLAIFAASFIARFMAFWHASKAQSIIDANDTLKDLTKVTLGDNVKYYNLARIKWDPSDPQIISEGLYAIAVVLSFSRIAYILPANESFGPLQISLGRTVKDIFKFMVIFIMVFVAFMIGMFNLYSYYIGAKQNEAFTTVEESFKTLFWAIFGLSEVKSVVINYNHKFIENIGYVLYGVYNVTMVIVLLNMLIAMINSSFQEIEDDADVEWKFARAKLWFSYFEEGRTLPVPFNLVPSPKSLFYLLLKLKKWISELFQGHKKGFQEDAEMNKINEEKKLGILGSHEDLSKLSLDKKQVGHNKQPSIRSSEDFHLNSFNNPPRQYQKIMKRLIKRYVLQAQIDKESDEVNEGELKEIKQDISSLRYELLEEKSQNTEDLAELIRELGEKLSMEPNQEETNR
In short: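 The FLIPR signal is maximum fluorescence after 30 μM OAG minus minimum before compound, measured in a human TRPC6 stable line loaded with Calcium 5 dye. Compounds were preincubated 20 min. pIC50 came from four-parameter logistic fitting of inhibition rates and is given as symbol ranges.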

IC50 | Compound
< 10 nM | Cc1nc(Oc2cc(C#N)ccc2-c2ncc([C@H](O)CN)cn2)cc(N2CCCC2)n1 [compound 508, 4-[5-[(1S)-2-amino-1-hydroxyethyl]pyrimidin-2-yl]-3-(2-methyl-6-pyrrolidin-1-ylpyrimidin-4-yl)oxybenzonitrile]
< 10 nM | Cc1nc(Oc2cc(C#N)ccc2-c2ccc([C@H](O)CN)cn2)cc(N2CCCCC2)n1 [compound 509, 4-[5-[(1S)-2-amino-1-hydroxyethyl]pyridin-2-yl]-3-(2-methyl-6-piperidin-1-ylpyrimidin-4-yl)oxybenzonitrile]
< 10 nM | Cc1nc(Oc2cc(C#N)ccc2-c2ncc([C@H](O)CN)cn2)cc(N2CCCCC2)n1 [compound 510, 4-[5-[(1S)-2-amino-1-hydroxyethyl]pyrimidin-2-yl]-3-(2-methyl-6-piperidin-1-ylpyrimidin-4-yl)oxybenzonitrile]
> 1000 nM | Cn1nc(C2CC2)cc1Oc1cc(C#N)ccc1-c1ccc(C(N)c2nnn[nH]2)cn1 (stereo not shown) [compound 511, 4-[5-[amino(1H-tetrazol-5-yl)methyl]pyridin-2-yl]-3-(5-cyclopropyl-2-methylpyrazol-3-yl)oxybenzonitrile]
10 to 1000 nM | Cn1nc(-c2ncccn2)cc1Oc1cc(C#N)ccc1-c1ccc(CCN)cn1 [compound 512, 4-[5-(2-aminoethyl)pyridin-2-yl]-3-(2-methyl-5-pyrimidin-2-ylpyrazol-3-yl)oxybenzonitrile]
10 to 1000 nM | COc1cccnc1-c1cc(Oc2cc(C#N)ccc2-c2ccc([C@H](O)CN)cn2)cc(C)n1 [compound 513, 4-[5-[(1S)-2-amino-1-hydroxyethyl]pyridin-2-yl]-3-[2-(3-methoxypyridin-2-yl)-6-methylpyridin-4-yl]oxybenzonitrile]
10 to 1000 nM | Cn1nc(C2CCOCC2)cc1Oc1cc(C#N)ccc1-c1ccc(C(N)CO)cn1 (stereo not shown) [compound 514, 4-[5-(1-amino-2-hydroxyethyl)pyridin-2-yl]-3-[2-methyl-5-(oxan-4-yl)pyrazol-3-yl]oxybenzonitrile]
10 to 1000 nM | Cn1nc(C2CC2)cc1Oc1cc(C#N)ccc1-c1cccn2c(CN)nnc12 [compound 515, 4-[3-(aminomethyl)-[1,2,4]triazolo[4,3-a]pyridin-8-yl]-3-(5-cyclopropyl-2-methylpyrazol-3-yl)oxybenzonitrile]
> 1000 nM | Cn1nc(-c2ccccc2)cc1Oc1cc(C#N)ccc1-c1ccc(C(N)C(N)=O)cn1 (stereo not shown) [compound 516, 2-amino-2-[6-[4-cyano-2-(2-methyl-5-phenylpyrazol-3-yl)oxyphenyl]pyridin-3-yl]acetamide]
< 10 nM | Cc1cc(Oc2cc(C#N)ccc2-c2ccc([C@@H](O)CN)cn2)cc(N2CCOCC2)n1 [compound 517, 4-[5-[(1R)-2-amino-1-hydroxyethyl]pyridin-2-yl]-3-(2-methyl-6-morpholin-4-ylpyridin-4-yl)oxybenzonitrile]
10 to 1000 nM | Cn1nc(C2CC2)cc1Oc1cc(C#N)ccc1-c1cc(C(O)CN)c(Cl)cn1 (stereo not shown) [compound 518, 4-[4-(2-amino-1-hydroxyethyl)-5-chloropyridin-2-yl]-3-(5-cyclopropyl-2-methylpyrazol-3-yl)oxybenzonitrile]
10 to 1000 nM | Cn1nc(C2CC2)cc1Oc1cc(C#N)ccc1-c1cc(C(O)CN)ccn1 (stereo not shown) [compound 519, 4-[4-(2-amino-1-hydroxyethyl)pyridin-2-yl]-3-(5-cyclopropyl-2-methylpyrazol-3-yl)oxybenzonitrile]
10 to 1000 nM | Cn1nc(C2CC2)cc1Oc1cc(C#N)ccc1-c1ncc(CN)s1 [compound 520, 4-[5-(aminomethyl)-1,3-thiazol-2-yl]-3-(5-cyclopropyl-2-methylpyrazol-3-yl)oxybenzonitrile]
< 10 nM | Cn1nc(-c2ccccn2)cc1Oc1cc(C#N)ccc1-c1ncc(CN)s1 [compound 521, 4-[5-(aminomethyl)-1,3-thiazol-2-yl]-3-(2-methyl-5-pyridin-2-ylpyrazol-3-yl)oxybenzonitrile]
< 10 nM | Cn1nc(-c2ccccn2)cc1Oc1cc(C#N)ccc1-c1ccc(CN)n2ccnc12 [compound 522, 4-[5-(aminomethyl)imidazo[1,2-a]pyridin-8-yl]-3-(2-methyl-5-pyridin-2-ylpyrazol-3-yl)oxybenzonitrile]
10 to 1000 nM | Cc1nc(Oc2cc(C#N)ccc2-c2ccc([C@H](O)CN)cn2)cc(N2C[C@@H](C)O[C@@H](C)C2)n1 [compound 523, 4-[5-[(1S)-2-amino-1-hydroxyethyl]pyridin-2-yl]-3-[6-[(2S,6R)-2,6-dimethylmorpholin-4-yl]-2-methylpyrimidin-4-yl]oxybenzonitrile]
10 to 1000 nM | Cc1nc(Oc2cc(C#N)ccc2-c2ncc([C@H](O)CN)cn2)cc(N2C[C@@H](C)O[C@@H](C)C2)n1 [compound 524, 4-[5-[(1S)-2-amino-1-hydroxyethyl]pyrimidin-2-yl]-3-[6-[(2S,6R)-2,6-dimethylmorpholin-4-yl]-2-methylpyrimidin-4-yl]oxybenzonitrile]
< 10 nM | Cc1nc(Oc2cc(C#N)ccc2-c2ccc([C@H](O)CN)cn2)cc(-c2ccccc2)n1 [compound 525, 4-[5-[(1S)-2-amino-1-hydroxyethyl]pyridin-2-yl]-3-(2-methyl-6-phenylpyrimidin-4-yl)oxybenzonitrile]
< 10 nM | Cc1nc(Oc2cc(C#N)ccc2-c2ncc([C@H](O)CN)cn2)cc(-c2ccccc2)n1 [compound 526, 4-[5-[(1S)-2-amino-1-hydroxyethyl]pyrimidin-2-yl]-3-(2-methyl-6-phenylpyrimidin-4-yl)oxybenzonitrile]
< 10 nM | Cc1cc(Oc2cc(C#N)ccc2-c2ccc([C@H](O)CN)cn2)cc(N2C[C@@H]3C[C@H]2CO3)n1 [compound 527, 4-[5-[(1S)-2-amino-1-hydroxyethyl]pyridin-2-yl]-3-[2-methyl-6-[(1S,4S)-2-oxa-5-azabicyclo[2.2.1]heptan-5-yl]pyridin-4-yl]oxybenzonitrile]
10 to 1000 nM | Cc1cc(Oc2cc(C#N)ccc2-c2ncc([C@H](O)CN)cn2)cc(N2C[C@@H]3C[C@H]2CO3)n1 [compound 528, 4-[5-[(1S)-2-amino-1-hydroxyethyl]pyrimidin-2-yl]-3-[2-methyl-6-[(1S,4S)-2-oxa-5-azabicyclo[2.2.1]heptan-5-yl]pyridin-4-yl]oxybenzonitrile]
< 10 nM | Cc1cc(Oc2cc(C#N)ccc2-c2ccc([C@H](O)CN)cn2)cc(N2CCO[C@@H](C)C2)n1 [compound 529, 4-[5-[(1S)-2-amino-1-hydroxyethyl]pyridin-2-yl]-3-[2-methyl-6-[(2S)-2-methylmorpholin-4-yl]pyridin-4-yl]oxybenzonitrile]
< 10 nM | Cc1cc(Oc2cc(C#N)ccc2-c2ncc([C@H](O)CN)cn2)cc(N2CCO[C@@H](C)C2)n1 [compound 530, 4-[5-[(1S)-2-amino-1-hydroxyethyl]pyrimidin-2-yl]-3-[2-methyl-6-[(2S)-2-methylmorpholin-4-yl]pyridin-4-yl]oxybenzonitrile]
< 10 nM | Cc1cc(Oc2cc(C#N)ccc2-c2ccc([C@H](O)CN)cn2)cc(N2CCOC(C)(C)C2)n1 [compound 531, 4-[5-[(1S)-2-amino-1-hydroxyethyl]pyridin-2-yl]-3-[2-(2,2-dimethylmorpholin-4-yl)-6-methylpyridin-4-yl]oxybenzonitrile]
< 10 nM | Cc1cc(Oc2cc(C#N)ccc2-c2ncc([C@H](O)CN)cn2)cc(N2CCOC(C)(C)C2)n1 [compound 532, 4-[5-[(1S)-2-amino-1-hydroxyethyl]pyrimidin-2-yl]-3-[2-(2,2-dimethylmorpholin-4-yl)-6-methylpyridin-4-yl]oxybenzonitrile]
10 to 1000 nM | N#Cc1ccc(-c2ncc(CN)cn2)c(Oc2cnnc(N3CCOCC3)c2)c1 [compound 534, 4-[5-(aminomethyl)pyrimidin-2-yl]-3-(6-morpholin-4-ylpyridazin-4-yl)oxybenzonitrile]
> 1000 nM | N#Cc1ccc(-c2ncc(CN)cn2)c(Oc2cc(N3CCOCC3)cnn2)c1 [compound 535, 4-[5-(aminomethyl)pyrimidin-2-yl]-3-(5-morpholin-4-ylpyridazin-3-yl)oxybenzonitrile]
< 10 nM | Cn1nc(-c2nccs2)cc1Oc1cc(C#N)ccc1-c1ccc([C@H](O)CN)cn1 [compound 536, 4-[5-[(1S)-2-amino-1-hydroxyethyl]pyridin-2-yl]-3-[2-methyl-5-(1,3-thiazol-2-yl)pyrazol-3-yl]oxybenzonitrile]
